Literature values, collected in US8101589B2, “Nitric oxide-releasing molecules” (Noxilizer, Inc., priority 2004, dated 2012).

Settings: literature (Traube, 1898)

## methylene bisdiazeniumdiolate
  NO release in solution: inability to release NO
